Active and inactive are the calls of the source. The calls are words filed in the database; no cut-off is given here.
Key:
A549 = test: cells; details: Homo sapiens, A549, 72 h
Description: Anticancer activity against human A549 cells assessed as inhibition of cell proliferation incubated for 72 hrs by MTT assay

PC-9 = test: cells; details: Homo sapiens, PC-9, 72 h
Description: Anticancer activity against human PC-9 cells assessed as inhibition of cell proliferation incubated for 72 hrs by MTT assay

NCI-H1975 = test: cells; details: Homo sapiens, NCI-H1975, 72 h
Description: Anticancer activity against human NCI-H1975 cells assessed as inhibition of cell proliferation incubated for 72 hrs by MTT assay

HCC827 = test: cells; details: Homo sapiens, HCC827, 72 h
Description: Anticancer activity against human HCC827 cells assessed as inhibition of cell proliferation incubated for 72 hrs by MTT assay

NCI-H460 = test: cells; details: Homo sapiens, NCI-H460, 72 h
Description: Anticancer activity against human NCI-H460 cells assessed as inhibition of cell proliferation incubated for 72 hrs by MTT assay

DU-145 = test: cells; details: Homo sapiens, DU-145, 72 h
Description: Anticancer activity against human DU-145 cells assessed as inhibition of cell proliferation incubated for 72 hrs by MTT assay

PC-3 = test: cells; details: Homo sapiens, PC-3, 72 h
Description: Anticancer activity against human PC-3 cells assessed as inhibition of cell proliferation incubated for 72 hrs by MTT assay

CWR22R = test: cells; details: Homo sapiens, 22Rv1, 72 h
Description: Anticancer activity against human 22Rv1 cells assessed as inhibition of cell proliferation incubated for 72 hrs by MTT assay

HGC-27 [1] = test: Anticancer activity against human HGC-27 cells assessed as inhibition of cell proliferation incubated for 72 hrs by MTT assay; type: functional, cell-based; details: HGC-27, 72 h
MGC-803 = test: Anticancer activity against human MGC-803 cells assessed as inhibition of cell proliferation incubated for 72 hrs by MTT assay; type: functional, cell-based; details: MGC-803, 72 h
AGS = test: Anticancer activity against human AGS cells assessed as inhibition of cell proliferation incubated for 72 hrs by MTT assay; type: functional, cell-based
MDA-MB-231 = test: Anticancer activity against human MDA-MB-231 cells assessed as inhibition of cell proliferation incubated for 72 hrs by MTT assay; type: functional, cell-based; details: MDA-MB-231, 72 h
MCF7 = test: Anticancer activity against human MCF7 cells assessed as inhibition of cell proliferation incubated for 72 hrs by MTT assay; type: functional, cell-based; details: MCF7, 72 h
4T1 = test: Anticancer activity against mouse 4T1 cells assessed as inhibition of cell proliferation incubated for 72 hrs by MTT assay; type: functional, cell-based; details: 4T1, 72 h
HeLa = test: Anticancer activity against human HeLa cells assessed as inhibition of cell proliferation incubated for 72 hrs by MTT assay; type: functional, cell-based
HONE1 cell line = test: Anticancer activity against human HONE1 cell line assessed as inhibition of cell proliferation incubated for 72 hrs by MTT assay; type: functional, cell-based; details: HONE1, 72 h
C6661 = test: Anticancer activity against human C666-1 cells assessed as inhibition of cell proliferation incubated for 72 hrs by MTT assay; type: functional, cell-based; details: C6661, 72 h
HCT-116 = test: Anticancer activity against human HCT-116 cells assessed as inhibition of cell proliferation incubated for 72 hrs by MTT assay; type: functional, cell-based; details: HCT-116, 72 h
HepG2 = test: Anticancer activity against human HepG2 cells assessed as inhibition of cell proliferation incubated for 72 hrs by MTT assay; type: functional, cell-based; details: HepG2, 72 h
[2] = Cytotoxicity against human L02 cells assessed as inhibition of cell proliferation incubated for 72 hrs by MTT assay; type: toxicity, cell-based
[3] = Cytotoxicity against H9c2 cells assessed as inhibition of cell proliferation incubated for 72 hrs by MTT assay; type: toxicity, cell-based; details: rat
[4] = Cytotoxicity against HEK293 cells assessed as inhibition of cell proliferation incubated for 72 hrs by MTT assay; type: toxicity, cell-based; details: human
[5] = Cytotoxicity against human GES1 cells assessed as inhibition of cell proliferation incubated for 72 hrs by MTT assay; type: toxicity, cell-based
HGC-27 [6] = test: Antitumor activity against human HGC-27 cells xenografted in female BALB/c nude mouse model assessed as reduction in tumor growth at 15 mg/kg/day, ip administered for 21 days relative to control; type: functional; design: scale not given: the % may be the effect or the level left; details: time 21 day
HGC-27 [7] = test: Antitumor activity against human HGC-27 cells xenografted in female BALB/c nude mouse model assessed as reduction in tumor weight at 15 mg/kg/day, ip administered for 21 days; type: functional, organism-based; details: time 21.0 day
[8] = biological target: Tyrosine-protein kinase BTK (Homo sapiens, UniProt Q06187); test: Inhibition of BTK (unknown origin)
Chain of Tyrosine-protein kinase BTK (Q06187 whole entry): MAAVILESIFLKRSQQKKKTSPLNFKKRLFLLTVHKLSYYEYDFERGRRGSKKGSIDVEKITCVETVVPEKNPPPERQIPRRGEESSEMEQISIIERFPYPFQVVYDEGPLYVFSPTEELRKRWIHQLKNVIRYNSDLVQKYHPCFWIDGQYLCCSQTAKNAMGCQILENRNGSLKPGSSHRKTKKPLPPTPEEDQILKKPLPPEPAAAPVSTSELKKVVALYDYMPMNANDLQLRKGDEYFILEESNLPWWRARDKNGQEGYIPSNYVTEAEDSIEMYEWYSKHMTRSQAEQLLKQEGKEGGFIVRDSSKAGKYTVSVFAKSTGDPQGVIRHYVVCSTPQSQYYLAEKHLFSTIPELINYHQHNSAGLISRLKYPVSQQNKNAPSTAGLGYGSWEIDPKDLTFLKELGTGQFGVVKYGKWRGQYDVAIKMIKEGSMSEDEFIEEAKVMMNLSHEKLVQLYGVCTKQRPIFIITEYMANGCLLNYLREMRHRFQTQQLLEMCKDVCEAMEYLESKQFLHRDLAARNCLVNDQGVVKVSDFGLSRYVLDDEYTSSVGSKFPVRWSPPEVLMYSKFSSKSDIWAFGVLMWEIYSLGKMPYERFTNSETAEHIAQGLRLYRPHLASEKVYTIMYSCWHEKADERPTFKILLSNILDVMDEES

| Structure (SMILES) | IC50 (A549) [µM] | IC50 (PC-9) [µM] | IC50 (NCI-H1975) [µM] | IC50 (HCC827) [µM] | IC50 (NCI-H460) [µM] | IC50 (DU-145) [µM] | IC50 (PC-3) [µM] | IC50 (CWR22R) [µM] | further results |
| --- | --- | --- | --- | --- | --- | --- | --- | --- | --- |
| C=CS(=O)(=O)N1CCC[C@@H](Nc2nc(N)nc(Nc3ccc(Oc4ccccc4)cc3)n2)C1 | > 32 | > 32 | 29.8 | 5.2 | > 32 | > 32 | > 32 | > 32 | – |
| C=CC(=O)N1CCC[C@@H](n2nc(-c3ccc(Oc4ccccc4)cc3)c3c(N)ncnc32)C1 [IBRUTINIB] | 17.6 | 3.1 | 5.6 | 0.1 | 12.7 | 5.3 | 21.1 | 26.7 | IC50 (HGC-27 [1]): 16 µM; IC50 (MGC-803): 9.2 µM; IC50 (AGS): 10.4 µM; IC50 (MDA-MB-231): 28.9 µM; IC50 (MCF7): 29.9 µM; IC50 (4T1): 9.3 µM; IC50 (HeLa): 28.1 µM; IC50 (HONE1 cell line): 24.5 µM; IC50 (C6661): 17 µM; IC50 (HCT-116): 17.7 µM; IC50 (HepG2): > 32 µM; IC50 at 72 h [2]: > 32 µM; IC50 at 72 h [3]: > 32 µM; IC50 at 72 h [4]: > 32 µM; IC50 at 72 h [5]: 28.6 µM; Activity (HGC-27 [6]): 17.03%; Activity (HGC-27 [7]): Active |
| Cn1cc(Nc2nc(N)nc(-c3cccc(-n4ccc5cc(C6CC6)ccc5c4=O)c3CO)n2)cn1 | – | – | – | – | – | – | – | – | IC50 [8]: 0.0042 µM |
| C=CS(=O)(=O)N1CCC[C@@H](Nc2nc(N)nc(Nc3cccc(OCc4ccccc4)c3)n2)C1 | 25 | 21.9 | 4.3 | 3 | 14.3 | 9.7 | 18.6 | 23.7 | IC50 (HGC-27 [1]): 15.6 µM; IC50 (MGC-803): 13.4 µM; IC50 (AGS): 9.2 µM; IC50 (MDA-MB-231): 12.1 µM; IC50 (MCF7): 18.4 µM; IC50 (4T1): 17.5 µM; IC50 (HeLa): 14.5 µM; IC50 (HONE1 cell line): 14 µM; IC50 (C6661): 18.9 µM; IC50 (HCT-116): 19.6 µM; IC50 (HepG2): > 32 µM; IC50 at 72 h [2]: > 32 µM; IC50 at 72 h [3]: > 32 µM; IC50 at 72 h [4]: > 32 µM; IC50 at 72 h [5]: 13.9 µM |
| C=CS(=O)(=O)N1CCC(CNc2nc(N)nc(Nc3ccc(Oc4ccccc4)cc3)n2)CC1 | > 32 | > 32 | > 32 | 29.3 | > 32 | > 32 | > 32 | > 32 | – |
| C=CS(=O)(=O)N1CC[C@@H](Nc2nc(N)nc(Nc3ccc(Oc4ccccc4)cc3)n2)C1 | > 32 | > 32 | > 32 | 12.6 | > 32 | 22.4 | > 32 | > 32 | – |
| C=CS(=O)(=O)N1CCC[C@@H](Nc2nc(N)nc(Nc3ccc(OCc4ccccc4)cc3)n2)C1 | > 32 | > 32 | > 32 | > 32 | > 32 | 19 | > 32 | > 32 | – |

Source: ChEMBL document CHEMBL6153141, “Design, Synthesis, and Mechanism Study of Novel BMX Inhibitors Based on the Core of 1,3,5-Triazin-2-Amine for the Treatment of Gastric Carcinoma” (J Med Chem, 2025)
